Columns and labels:
[1] = Drug concentration in total brain in Wistar Han rat at 1 to 2 mg/kg, iv infused for 10 to 20 hrs by LC-MS/MS analysis; conditions: in vivo
[2] = Fraction unbound in Wistar Han rat heart at 2 uM incubated for 6 hrs by equilibrium dialysis method
[3] = Unbound tissue partition coefficient, ratio of drug level in liver to plasma in Wistar Han rat at 1 to 2 mg/kg, iv infused for 10 to 20 hrs by LC-MS/MS analysis; conditions: liver/plasma
[4] = Drug concentration in total white adipose tissue in Wistar Han rat at 1 to 2 mg/kg, iv infused for 10 to 20 hrs by LC-MS/MS analysis; conditions: in vivo
[5] = Fraction unbound in Wistar Han rat white adipose tissue at 2 uM incubated for 6 hrs by equilibrium dialysis method
[6] = Fraction unbound in Wistar Han rat liver at 2 uM incubated for 6 hrs by equilibrium dialysis method
[7] = Unbound tissue partition coefficient, ratio of drug level in brain to plasma in Wistar Han rat at 1 to 2 mg/kg, iv infused for 10 to 20 hrs by LC-MS/MS analysis; conditions: brain/plasma
[8] = Unbound tissue partition coefficient, ratio of drug level in heart to plasma in Wistar Han rat at 1 to 2 mg/kg, iv infused for 10 to 20 hrs by LC-MS/MS analysis; conditions: heart/plasma
[9] = Apparent permeability of the compound across dog RRCK cells by MDCK-LE assay
[10] = Unbound tissue partition coefficient, ratio of drug level in adipose to plasma in Wistar Han rat at 1 to 2 mg/kg, iv infused for 10 to 20 hrs by LC-MS/MS analysis; conditions: adipose/plasma
[11] = Drug concentration in total liver in Wistar Han rat at 1 to 2 mg/kg, iv infused for 10 to 20 hrs by LC-MS/MS analysis; conditions: in vivo
[12] = Fraction unbound in Wistar Han rat plasma at 2 uM incubated for 6 hrs by equilibrium dialysis method
[13] = Unbound tissue partition coefficient, ratio of drug level in skeletal muscle to plasma in Wistar Han rat at 1 to 2 mg/kg, iv infused for 10 to 20 hrs by LC-MS/MS analysis; conditions: skeletal muscle/plasma
[14] = Total plasma concentration in Wistar Han rat at 1 to 2 mg/kg, iv infused for 10 to 20 hrs by LC-MS/MS analysis; conditions: in vivo
[15] = Drug concentration in total skeletal muscle in Wistar Han rat at 1 to 2 mg/kg, iv infused for 10 to 20 hrs by LC-MS/MS analysis; conditions: in vivo
[16] = Fraction unbound in Wistar Han rat brain at 2 uM incubated for 6 hrs by equilibrium dialysis method
[17] = Drug concentration in total heart in Wistar Han rat at 1 to 2 mg/kg, iv infused for 10 to 20 hrs by LC-MS/MS analysis; conditions: in vivo
[18] = Fraction unbound in Wistar Han rat skeletal muscle at 2 uM incubated for 6 hrs by equilibrium dialysis method

SMILES	Ct [1] [ng/mL]	fraction unbound at 6 h, 2 µM [2]	Kp uu [3]	Ct [4] [ng/mL]	fraction unbound at 6 h, 2 µM [5]	fraction unbound at 6 h, 2 µM [6]	Kp uu [7]	Kp uu [8]	Papp [9] [×10⁻⁶ cm/s]	Kp uu [10]	Ct [11] [ng/mL]	fraction unbound at 6 h, 2 µM [12]	Kp uu [13]	Cp [14] [ng/mL]	Ct [15] [ng/mL]	fraction unbound at 6 h, 2 µM [16]	Ct [17] [ng/mL]	fraction unbound at 6 h, 2 µM [18]
CO[C@@H]1C[C@H](C(=O)Nc2ccc(-n3cc(Cl)ccc3=O)cc2F)N(C(=O)Nc2ccc(Cl)cc2)C1	10	0.0772	8.6	300	0.177	0.0949	0.064	11	21	7.9	600	0.0543	2.4	120	180	0.0391	960	0.0842
CCCC(Oc1ccc(-n2cc3ccccc3n2)cc1)c1ccc(C(=O)NCCC(=O)O)cc1 (configuration not stated)	1.9	0.00543	14	0.77	0.105	0.00607	0.018	1.8	9.9	0.024	420	0.0034	0.38	68	12	0.00341	80	0.00584
O=C(NC1CC1)c1nc2cccnn2c1-c1ccc2ncnn2c1	68	0.746	3.9	29	0.709	0.439	2.5	4	27	0.95	210	0.511	1.3	50	100	0.886	140	0.304
Cn1cnc(-c2ccc(O[C@H]3CCN(C(=O)Cc4ccc(OC(F)(F)F)cc4)C[C@@H]3F)c(C(N)=O)c2)c1	0.38	0.0378	4.4	6	0.179	0.0393	0.0018	0.8	14	0.21	540	0.0645	0.87	76	69	0.0216	100	0.0611
O=C(O)[C@@H]1CCCN(C(=O)n2cnc(-c3ccc(-c4cnc(N5CCOCC5)nc4)cc3)n2)[C@H]1c1ccccc1	1.5	0.00542	18	8	0.089	0.00643	0.0089	1.1	7.9	2.5	860	0.00273	0.3	120	18	0.00251	59	0.00554
CC(=O)N1CCN(c2ccc(OCC3COC(Cn4ccnc4)(c4ccc(Cl)cc4Cl)O3)cc2)CC1 (configuration not stated) [KETOCONAZOLE]	–	–	–	–	–	–	–	–	4.2	–	–	–	–	–	–	–	–	–
O=C(O)C(=O)Nc1ccc(NC(=O)[C@H](CC2CCCC2)n2cnc(C(F)(F)F)c2)nc1	0.38	–	7.2	0.77	–	–	0.0018	0.75	–	0.024	300	–	0.02	110	0.9	–	20	–

— ChEMBL document CHEMBL4373746, “Structural attributes influencing unbound tissue distribution” (Eur J Med Chem, 2020)
